19 compounds from ChEMBL document CHEMBL3045205, “Synthesis and Fungicidal Activities of [2-(2, 5-Dimethylphenoxymethyl)--methoxyiminobenzyl]-isoxazole Derivatives” (J Pestic Sci, 1999) can be followed below.

As a reminder, the inhibition is how much of the control response was suppressed. As a reminder, the IC50 is the concentration that inhibits the measured activity by half. High values mean weaker potency in that assay, low ones greater potency in that assay.

What all share (type): functional
Assay [1] has as its system Podosphaera fuliginea. Briefly: Fungicidal activity against Podosphaera fuliginea inoculated on cucumber plants pre-treated with compound 24 hr before fungal inoculation assessed as inhibition of cucumber powdery mildew disease at 31.3 ppm measured after 10 days under greenhouse conditions relative to untreated control.
The subject of assay [2] is Blumeria graminis f. sp. tritici. Kind of assay: Fungicidal activity against Blumeria graminis f. sp. tritici inoculated on wheat seedlings pre-treated with compound 24 hr before fungal inoculation assessed as inhibition of wheat powdery mildew disease at 500 ppm measured after 10 days under greenhouse conditions relative to untreated control.
Assay [3] has the same test system. Briefly: Fungicidal activity against Blumeria graminis f. sp. tritici inoculated on wheat seedlings pre-treated with compound 24 hr before fungal inoculation assessed as inhibition of wheat powdery mildew disease at 7.8 ppm measured after 10 days under greenhouse conditions relative to untreated control.
Assay [4] has as its system Podosphaera fuliginea. Kind of assay: Fungicidal activity against Podosphaera fuliginea inoculated on cucumber plants pre-treated with compound 24 hr before fungal inoculation assessed as inhibition of cucumber powdery mildew disease at 7.8 ppm measured after 10 days under greenhouse conditions relative to untreated control.
In assay [5] the test system is Podosphaera fuliginea. Briefly: Fungicidal activity against Podosphaera fuliginea inoculated on cucumber plants pre-treated with compound 24 hr before fungal inoculation assessed as inhibition of cucumber powdery mildew disease at 500 ppm measured after 10 days under greenhouse conditions relative to untreated control.
Assay [6] relates to Blumeria graminis f. sp. tritici. Briefly: Fungicidal activity against Blumeria graminis f. sp. tritici inoculated on wheat seedlings pre-treated with compound 24 hr before fungal inoculation assessed as inhibition of wheat powdery mildew disease at 31.3 ppm measured after 10 days under greenhouse conditions relative to untreated control.
The test system is the same in assay [7]. Kind of assay: Fungicidal activity against Blumeria graminis f. sp. tritici inoculated on wheat seedlings pre-treated with compound 24 hr before fungal inoculation assessed as inhibition of wheat powdery mildew disease at 125 ppm measured after 10 days under greenhouse conditions relative to untreated control.
In assay [8] the test system is Botrytis cinerea. Kind of assay: Fungicidal activity against Botryotinia fuckeliana inoculated on cucumber leaves treated with compound 24 hr after fungal inoculation assessed as inhibition of cucumber gray mold disease at 31.3 ppm measured after 3 days under greenhouse conditions relative to untreated control.
The test system of assay [9] is Podosphaera fuliginea. Briefly: Fungicidal activity against Podosphaera fuliginea inoculated on cucumber plants treated with compound 24 hr after fungal inoculation assessed as inhibition of cucumber powdery mildew disease at 31.3 ppm measured after 10 days under greenhouse conditions relative to untreated control.
Assay [10] concerns Puccinia coronata. Briefly: Fungicidal activity against Puccinia coronata inoculated in oat leaves pre-treated with compound 24 hr before fungal inoculation assessed as inhibition of oat crown rust disease at 7.8 ppm measured after 9 days under greenhouse conditions relative to untreated control.
Assay [11] relates to Puccinia coronata. Kind of assay: Fungicidal activity against Puccinia coronata inoculated in oat leaves pre-treated with compound 24 hr before fungal inoculation assessed as inhibition of oat crown rust disease at 31.3 ppm measured after 9 days under greenhouse conditions relative to untreated control.
Assay [12] concerns Puccinia coronata. Kind of assay: Fungicidal activity against Puccinia coronata inoculated in oat leaves treated with compound 24 hr after fungal inoculation assessed as inhibition of oat crown rust disease at 31.3 ppm measured after 9 days under greenhouse conditions relative to untreated control.
Assay [13] relates to Blumeria graminis f. sp. tritici. Briefly: Fungicidal activity against Blumeria graminis f. sp. tritici inoculated on wheat seedlings treated with compound 24 hr after fungal inoculation assessed as inhibition of wheat powdery mildew disease at 31.3 ppm measured after 10 days under greenhouse conditions relative to untreated control.
Assay [14] deals with Botrytis cinerea. Briefly: Fungicidal activity against Botryotinia fuckeliana inoculated on cucumber leaves treated with compound 24 hr after fungal inoculation assessed as inhibition of cucumber gray mold disease at 7.8 ppm measured after 3 days under greenhouse conditions relative to untreated control.
Assay [15] has as its system Puccinia coronata. Briefly: Fungicidal activity against Puccinia coronata inoculated in oat leaves treated with compound 24 hr after fungal inoculation assessed as inhibition of oat crown rust disease at 7.8 ppm measured after 9 days under greenhouse conditions relative to untreated control.
Assay [16] has as its system Pyricularia oryzae. Briefly: Inhibition of oxygen consumption in Magnaporthe oryzae submitochondrial particles using NADH substrate.
Assay [17] concerns Botrytis cinerea. Kind of assay: Fungicidal activity against Botryotinia fuckeliana inoculated on cucumber leaves pre-treated with compound 24 hr before fungal inoculation assessed as inhibition of cucumber gray mold disease at 31.3 ppm measured after 3 days under greenhouse conditions relative to untreated control.
Assay [18] deals with Botrytis cinerea. Briefly: Fungicidal activity against Botryotinia fuckeliana inoculated on cucumber leaves pre-treated with compound 24 hr before fungal inoculation assessed as inhibition of cucumber gray mold disease at 7.8 ppm measured after 3 days under greenhouse conditions relative to untreated control.
For assay [19], the system named is Podosphaera fuliginea. Kind of assay: Fungicidal activity against Podosphaera fuliginea inoculated on cucumber plants treated with compound 24 hr after fungal inoculation assessed as inhibition of cucumber powdery mildew disease at 7.8 ppm measured after 10 days under greenhouse conditions relative to untreated control.
Assay [20] relates to Blumeria graminis f. sp. tritici. Briefly: Fungicidal activity against Blumeria graminis f. sp. tritici inoculated on wheat seedlings treated with compound 24 hr after fungal inoculation assessed as inhibition of wheat powdery mildew disease at 7.8 ppm measured after 10 days under greenhouse conditions relative to untreated control.

Where only a bound is given, the exact number is not on record here.

As for `CO/N=C(/c1cc(OC)on1)c1ccccc1COc1cc(C)ccc1C`, the inhibition at 31.3 ppm in [1] turned out to be 90%. Moreover, in assay [2], the inhibition at 500 ppm was under 90%.
On the same counts, the results for `CO/N=C(/c1cc(C)on1)c1ccccc1COc1cc(C)ccc1C` are 90% and under 90%.
With `CON=C(c1ccon1)c1ccccc1COc1cc(C)ccc1C`, the inhibition at 7.8 ppm in assay [3] and in assay [4] was 90% each time.
On to `CO/N=C(\c1ccccc1COc1cc(C)ccc1C)c1c(C)noc1C`, for which the inhibition at 500 ppm was under 90% in assay [2] and 90% in assay [5].
On to `CO/N=C(/c1ccno1)c1ccccc1COc1cc(C)ccc1C`, for which the inhibition at 31.3 ppm in assay [1] and in assay [6] was 90% throughout.
Turning to `CON=C(C1=NOCC1)c1ccccc1COc1cc(C)ccc1C`, in assay [4], the inhibition at 7.8 ppm came to 90%. Also, the inhibition at 125 ppm in assay [7] stood at 90%.
Consider `CO/N=C(\c1cc(C)no1)c1ccccc1COc1cc(C)ccc1C`, for which the inhibition at 31.3 ppm was 20% in [8]; 100% in assay [9]; 100% in assay [1]; 97% in assay [11]; 100% in assay [12]; 97% in assay [13]. Moreover, the inhibition at 31.3 ppm in [6] amounted to 97%; in assay [17], 30%. Further, the inhibition at 7.8 ppm is 97% in assay [3]; 100% in assay [4]; 90% in assay [10]; 0% in assay [14]; 97% in [15]; 10% in [18]. In addition, the inhibition at 7.8 ppm is 100% in assay [19] and 70% in assay [20]. The IC50 in [16] stood at 46 nM.
As to `CO/N=C(/C1=NOCC1)c1ccccc1COc1cc(C)ccc1C`, the inhibition at 31.3 ppm in assay [8] came to 20%; in assay [9], 100%; in assay [1], 100%; in [11], 90%; in [12], 50%; in assay [13], 97%. Besides, the inhibition at 31.3 ppm in [6] is 90%; in [17] it was 20%. Besides, the inhibition at 7.8 ppm was determined as 90% in assay [3]; 90% in assay [4]; 30% in [10]; 0% in [14]; 0% in assay [15]; 0% in assay [18]. The inhibition at 7.8 ppm in [19] was determined as 100%; in assay [20], 70%.
As to `CO/N=C(\c1ccccc1COc1cc(C)ccc1C)C1CC(C)=NO1` (configuration not stated), the inhibition at 31.3 ppm in [1] was determined as 90%. In addition, the inhibition at 500 ppm in assay [2] is under 90%.
`CON=C(c1cc(C)on1)c1ccccc1COc1cc(C)ccc1C`: in assay [4], the inhibition at 7.8 ppm was 90%. Moreover, the inhibition at 31.3 ppm in [6] is 90%.
Consider `CO/N=C(\c1ccno1)c1ccccc1COc1cc(C)ccc1C`, for which the inhibition at 500 ppm in assay [2] and in [5] was 90% in each case.
Consider `CO/N=C(/C1=NOC(C)(C)C1)c1ccccc1COc1cc(C)ccc1C`, for which the inhibition at 500 ppm in assay [2] and in assay [5] was under 90% in each case.
`CO/N=C(/c1cc(C)no1)c1ccccc1COc1cc(C)ccc1C`: the inhibition at 7.8 ppm in [4] came out at 90%. The inhibition at 31.3 ppm in assay [6] amounted to 90%.
As for `CO/N=C(\Cc1cc(C)no1)c1ccccc1COc1cc(C)ccc1C`, the inhibition at 500 ppm in assay [2] and in assay [5] was under 90% throughout.
Turning to `CO/N=C(/c1ccon1)c1ccccc1COc1cc(C)ccc1C`, the inhibition at 31.3 ppm in assay [8] turned out to be 30%; in assay [9], 100%; in assay [1], 100%; in [11], 97%; in assay [12], 70%; in assay [13] it was 97%. Moreover, the inhibition at 31.3 ppm came to 97% in [6] and 40% in [17]. Moreover, the inhibition at 7.8 ppm in assay [3] was 97%; in [4] it was 100%; in assay [10], 90%; in assay [14], 30%; in assay [15], 30%; in [18], 20%. For the same compound, the inhibition at 7.8 ppm in assay [19] is 100%; in assay [20], 90%. The same compound registered an IC50 in [16] of 103 nM.
Regarding `CCc1cc(/C(=N/OC)c2ccccc2COc2cc(C)ccc2C)on1`, the values for the inhibition at 500 ppm in assay [2] and in assay [5] were under 90% and 90%, respectively.
In the case of `CO/N=C(\c1ccon1)c1ccccc1COc1cc(C)ccc1C`, the inhibition at 7.8 ppm in assay [3] was determined as 90%. The inhibition at 31.3 ppm in [1] came to 90%.
On to `CNC(=O)/C(=N/OC)c1ccccc1Oc1cc(C)ccc1C`, for which the inhibition at 31.3 ppm in assay [8] was determined as 50%; in assay [9], 100%; in assay [1], 100%; in assay [11], 100%; in assay [12] it was 100%; in [13] it was 97%. The inhibition at 31.3 ppm was 100% in assay [6] and 50% in [17]. In addition, the inhibition at 7.8 ppm in assay [3] was found to be 100%; in assay [4], 100%; in assay [10] it was 100%; in assay [14] it was 40%; in assay [15] it was 100%; in [18], 40%. For the same compound, the results for the inhibition at 7.8 ppm in assay [19] and in assay [20] were 100% and 97%, respectively. Moreover, the IC50 in assay [16] was found to be 18 nM.
`CO/N=C(/C1=NOC(C)C1)c1ccccc1COc1cc(C)ccc1C` (configuration not stated): the inhibition at 31.3 ppm in assay [1] amounted to 90%. The inhibition at 500 ppm in [2] worked out at 90%.
